Read-outs that look alike come from different tables or passages of the source.
Legend:
[1] = male, CD (Sprague-Dawley) IGS, rat, in vivo
[2] = target: hrCYP2D6 (Homo sapiens, UniProt P10635); settings: recombinant enzyme, 5 μM, pH 7.4
Method: (§1) The reaction was initiated by the addition of NADPH, followed by incubation at 37° C.
(§2) % Remaining of TA=100×At/A0
(§3) Where, At is the peak area ratio of TA to internal standard (IS) at time t, A0 is the average peak area ratio of TA to IS at time zero.

[3] = target: T1, hrCYP2B6 (Homo sapiens, UniProt P20813); settings: recombinant enzyme, 5 μM, pH 7.4
T1 sequence (P20813 1-491): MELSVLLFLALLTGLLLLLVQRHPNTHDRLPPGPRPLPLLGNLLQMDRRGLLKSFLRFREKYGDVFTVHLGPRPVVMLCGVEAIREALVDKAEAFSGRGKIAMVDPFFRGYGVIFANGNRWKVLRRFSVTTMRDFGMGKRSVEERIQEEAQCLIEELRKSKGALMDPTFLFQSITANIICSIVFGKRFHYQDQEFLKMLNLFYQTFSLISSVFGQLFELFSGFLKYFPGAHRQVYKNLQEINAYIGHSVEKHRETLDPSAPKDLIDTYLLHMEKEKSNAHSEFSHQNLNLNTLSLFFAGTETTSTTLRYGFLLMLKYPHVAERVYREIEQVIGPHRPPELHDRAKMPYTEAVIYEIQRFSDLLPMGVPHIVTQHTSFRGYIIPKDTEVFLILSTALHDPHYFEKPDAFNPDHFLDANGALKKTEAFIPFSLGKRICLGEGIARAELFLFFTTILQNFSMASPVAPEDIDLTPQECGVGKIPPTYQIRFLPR
Method: as §1, §2, §3

[4] = target: hrCYP2C19 (Homo sapiens, UniProt P33261); settings: recombinant enzyme, 5 μM, pH 7.4
Chain of hrCYP2C19 (P33261 whole entry): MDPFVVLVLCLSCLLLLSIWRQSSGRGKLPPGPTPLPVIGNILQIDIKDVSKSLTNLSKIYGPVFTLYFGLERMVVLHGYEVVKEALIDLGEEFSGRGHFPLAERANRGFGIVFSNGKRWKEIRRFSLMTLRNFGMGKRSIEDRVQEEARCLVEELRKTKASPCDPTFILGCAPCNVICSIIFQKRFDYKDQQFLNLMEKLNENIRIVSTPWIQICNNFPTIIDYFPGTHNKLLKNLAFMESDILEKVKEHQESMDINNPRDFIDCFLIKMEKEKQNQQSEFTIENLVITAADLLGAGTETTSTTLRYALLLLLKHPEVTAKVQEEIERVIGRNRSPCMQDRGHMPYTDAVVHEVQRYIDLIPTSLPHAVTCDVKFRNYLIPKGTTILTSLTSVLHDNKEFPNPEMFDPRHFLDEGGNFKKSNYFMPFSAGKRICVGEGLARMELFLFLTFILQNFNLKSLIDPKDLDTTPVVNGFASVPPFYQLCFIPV
Method: as §1, §2, §3

[5] = target: T2, hrCYP2C8 (Homo sapiens, UniProt P10632); settings: recombinant enzyme, 5 μM, pH 7.4
T2 sequence (P10632 1-490): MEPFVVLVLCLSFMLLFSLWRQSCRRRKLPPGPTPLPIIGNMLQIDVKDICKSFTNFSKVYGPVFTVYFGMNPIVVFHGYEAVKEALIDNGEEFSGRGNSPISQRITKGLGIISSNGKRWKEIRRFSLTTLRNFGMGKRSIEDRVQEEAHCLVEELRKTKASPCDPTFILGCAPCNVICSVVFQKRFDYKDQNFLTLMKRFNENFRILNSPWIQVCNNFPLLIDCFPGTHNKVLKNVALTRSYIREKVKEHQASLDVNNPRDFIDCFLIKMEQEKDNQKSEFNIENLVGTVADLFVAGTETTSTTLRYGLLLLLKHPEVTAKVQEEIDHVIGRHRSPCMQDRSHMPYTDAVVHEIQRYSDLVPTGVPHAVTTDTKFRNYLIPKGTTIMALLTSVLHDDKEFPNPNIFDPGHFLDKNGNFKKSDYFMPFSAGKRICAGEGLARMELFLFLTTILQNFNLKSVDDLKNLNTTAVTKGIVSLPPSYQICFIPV
Method: as §1, §2, §3

[6] = in vivo; settings: male, CD (Sprague-Dawley) IGS, rat; for Cmax: po, 840 mg/kg, Cmax plasma level
[7] = target: T3, MATE1 (Homo sapiens, UniProt Q96FL8)
T3 sequence (Q96FL8 1-570): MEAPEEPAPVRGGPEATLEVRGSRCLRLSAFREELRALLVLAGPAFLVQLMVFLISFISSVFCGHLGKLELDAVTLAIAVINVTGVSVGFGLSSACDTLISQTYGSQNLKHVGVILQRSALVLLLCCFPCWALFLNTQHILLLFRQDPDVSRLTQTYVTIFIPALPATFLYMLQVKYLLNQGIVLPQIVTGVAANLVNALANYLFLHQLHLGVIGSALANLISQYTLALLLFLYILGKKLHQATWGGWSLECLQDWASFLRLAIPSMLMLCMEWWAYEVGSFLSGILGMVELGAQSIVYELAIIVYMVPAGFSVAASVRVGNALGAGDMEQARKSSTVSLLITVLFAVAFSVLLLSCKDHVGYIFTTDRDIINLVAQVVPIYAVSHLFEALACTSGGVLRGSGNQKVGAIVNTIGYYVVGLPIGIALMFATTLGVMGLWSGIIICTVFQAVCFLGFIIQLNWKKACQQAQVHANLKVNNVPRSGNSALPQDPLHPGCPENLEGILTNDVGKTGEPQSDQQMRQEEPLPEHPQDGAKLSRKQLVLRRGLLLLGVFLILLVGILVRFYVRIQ

Chain of hrCYP2D6 (P10635 whole entry): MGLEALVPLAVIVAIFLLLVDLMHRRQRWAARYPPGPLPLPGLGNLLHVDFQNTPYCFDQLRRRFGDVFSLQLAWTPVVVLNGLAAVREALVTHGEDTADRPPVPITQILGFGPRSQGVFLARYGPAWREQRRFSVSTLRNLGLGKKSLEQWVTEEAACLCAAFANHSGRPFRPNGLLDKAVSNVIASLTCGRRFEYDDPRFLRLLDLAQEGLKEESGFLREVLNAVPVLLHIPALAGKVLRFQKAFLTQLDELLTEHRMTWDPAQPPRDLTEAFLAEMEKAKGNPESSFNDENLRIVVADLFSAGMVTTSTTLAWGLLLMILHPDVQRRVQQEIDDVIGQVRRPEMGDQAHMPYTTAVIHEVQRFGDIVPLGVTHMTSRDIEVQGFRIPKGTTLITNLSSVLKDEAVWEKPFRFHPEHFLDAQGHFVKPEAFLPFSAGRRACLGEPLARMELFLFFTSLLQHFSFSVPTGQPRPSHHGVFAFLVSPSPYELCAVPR

Row | Compound | % Remaining of TA ([2]; 0 h) | % Remaining of TA ([2]; 5 min) | % Remaining of TA ([2]; 10 min) | % Remaining of TA ([2]; 20 min) | % Remaining of TA ([2]; 0.5 h) | % Remaining of TA ([2]; 1 h) | % remained after 60 minutes of incubation ([2]; 1 h) | % remained after 60 minutes of incubation ([3]; 1 h) | % Remaining of TA ([4]; 0 h) | % Remaining of TA ([4]; 5 min) | % Remaining of TA ([4]; 10 min) | % Remaining of TA ([4]; 20 min) | % Remaining of TA ([4]; 0.5 h) | % remained after 60 minutes of incubation ([4]; 1 h) | % remained after 60 minutes of incubation ([5]; 1 h) | Cmax [6] | IC50 [7] | other results
1 | O=C(O)CCCc1ccccc1 [PB, sodium phenylbutyrate] | 100% | 99.9% | 96.7% | 97.6% | 101% | 100% | greater than 90% | greater than 90% | 100% | 97.4% | 101% | 99.7% | 97.5% | greater than 90% | greater than 90% | 10200 ng/mL | 24.6 to 73.9 mM | plasma concentrations remained quantifiable through [1]: 4 h; % Remaining of TA ([4]; 1 h): 99.8%
2 | C[C@H](CCC(=O)NCCS(=O)(=O)O)[C@H]1CC[C@H]2[C@@H]3[C@@H](O)C[C@@H]4C[C@H](O)CC[C@]4(C)[C@H]3CC[C@]12C [TUDCA, tauroursodeoxycholic acid] | 100% | 98.4% | 97.8% | 97.0% | 99.2% | 98.6% | greater than 90% | greater than 90% | 100% | 96.1% | 98.7% | 94.8% | 95.1% | greater than 90% | greater than 90% | 298 ng/mL | 0.27 to 0.81 mM | mean endogenous plasma levels over the 24 hour time course [1]: 130 to 222 ng/mL; % Remaining of TA ([3]; 0 h): 100%; % Remaining of TA ([3]; 5 min): 97.6%; % Remaining of TA ([3]; 10 min): 97.0%; % Remaining of TA ([3]; 20 min): 99.3%; % Remaining of TA ([3]; 0.5 h): 99.7%; % Remaining of TA ([3]; 1 h): 101%; % Remaining of TA ([5]; 0 h): 100%; % Remaining of TA ([5]; 10 min): 99.3%; % Remaining of TA ([5]; 20 min): 101%; % Remaining of TA ([5]; 0.5 h): 101%; % Remaining of TA ([5]; 1 h): 99.8%; Tmax ([6]; individual Tmax): 1 to 2 h
